Reference: US8642595B2, “Annellated 4-(indazolyl)-1,4-dihydropyridine derivatives and methods of use thereof” (Bayer Intellectual Property GmbH, priority 2008, dated 2014)

How the values were obtained:
[1] = target: T1, N-terminally His6-tagged recombinant kinase domain of the human c-Met (amino acids 960-1390) (Homo sapiens, UniProt P08581); experiment: c-Met receptor tyrosine kinase homogeneous time-resolved fluorescence assay (alternative format); format: biochemical; conditions: HTRF; ATP 10 μM, 30 min at 22° C.
T1 construct: kinase domain of the human c-Met (amino acids 960-1390); His6 (N); made in house; host or cells: insect cells (SF21)
Excerpt: c-Met Receptor Tyrosine Kinase Homogeneous Time-Resolved Fluorescence Assay (Alternative Format):
The N-terminally His6-tagged recombinant kinase domain of the human c-Met (amino acids 960-1390), expressed in insect cells (SF21) and purified by Ni-NTA affinity chromatography and consecutive size exclusion chromatography (Superdex 200), is used. Alternatively, commercially available c-Met (Millipore) can be used. As substrate for the kinase reaction, the biotinylated poly-Glu,Tyr (4:1) copolymer (#61GT0BLC, Cis Biointernational, Marcoule, France) is used.
For the assay, 50 nL of a 100-fold concentrated solution of the test compound in DMSO is pipetted into a black low-volume 384-well microtiter plate (Greiner Bio-One, Frickenhausen, Germany). 2 μL of a solution of c-Met in assay buffer [25 mM Hepes/NaOH, pH 7.5; 5 mM MgCl2; 5 mM MnCl2; 2 mM dithiothreitol; 0.1% (v/v) Tween 20 (Sigma); 0.1% (w/v) bovine serum albumin] are added, and the mixture is incubated for 15 min at 22° C. to allow pre-binding of the test compound to the enzyme before the start of the kinase reaction. Then, the kinase reaction is started by the addition of 3 μL of a solution of adenosine triphosphate (ATP, 16.7 μM; final concentration in the 5 μL assay volume is 10 μM) and substrate (2.27 μg/mL, final concentration in the 5 μL assay volume is 1.36 μg/mL˜30 nM) in assay buffer, and the resulting mixture is incubated for a reaction time of 30 min at 22° C. […]
The resulting mixture is incubated for 1 h at 22° C. to allow the binding of the biotinylated phosphorylated peptide to the streptavidine-XLent and the PT66-Eu-chelate. Subsequently, the amount of phosphorylated substrate is evaluated by measurement of the resonance energy transfer from the PT66-Eu-chelate to the streptavidine-XLent. Therefore, the fluorescence emissions at 620 nm and 665 nm after excitation at 350 nm are measured in an HTRF reader, e.g. Rubystar (BMG Lab-technologies, Offenburg, Germany) or Viewlux (Perkin-Elmer). […]

[2] = target: T2, Recombinant human c-Met protein (Homo sapiens, UniProt P08581); experiment: c-Met receptor tyrosine kinase activity assay (NADH read-out); format: biochemical; conditions: c-Met 30 nM, ATP 30 μM, 100 min at 32° C.
T2 construct: purchased Invitrogen
Procedure: c-Met Receptor Tyrosine Kinase Activity Assay (NADH Read-Out):
Recombinant human c-Met protein (Invitrogen, Carlsbad, Calif., USA) is used. As substrate for the kinase reaction the peptide KKKSPGEYVNIEFG (JPT, Germany) is used. For the assay, 1 μL of a 51-fold concentrated solution of the test compound in DMSO is pipetted into a white 384-well microtiter plate (Greiner Bio-One, Frickenhausen, Germany). 25 μL of a solution of c-Met (final concentration 30 nM) and pyruvate kinase/lactate dehydrogenase (Roche Diagnostics, Mannheim, Germany; final concentration 8 mg/L) in assay buffer [3-(N-morpholino)propane-sulfonic acid (MOPS), 50 mM, pH 7; MgCl2, 10 mM; bovine serum albumin (BSA), 0.01%; Triton X 100, 0.01%; DTT, 2 mM] are added, and the mixture is incubated for 5 min at room temperature. Then, the kinase reaction is started by the addition of 25 μL of a solution of adenosine triphosphate (ATP, final concentration 30 μM), substrate (final concentration 100 μM), nicotinamide adenine dinucleotide (NADH, final concentration 50 μM) and dithiothreitol (DTT, final concentration 2 mM) in assay buffer, and the resulting mixture is incubated for a reaction time of 100 min at 32° C.
Subsequently, the amount of phosphorylated substrate is evaluated by measurement of the decrease of NADH fluorescence. Therefore, the fluorescence emissions at 465 nm after excitation at 340 nm is measured in a fluorescence reader, e.g. Tecan Ultra (Tecan, Männedorf, Switzerland). The data are normalised (enzyme reaction without inhibitor=0% inhibition; all other assay components but no enzyme=100% inhibition).

T1 sequence (P08581 960-1390): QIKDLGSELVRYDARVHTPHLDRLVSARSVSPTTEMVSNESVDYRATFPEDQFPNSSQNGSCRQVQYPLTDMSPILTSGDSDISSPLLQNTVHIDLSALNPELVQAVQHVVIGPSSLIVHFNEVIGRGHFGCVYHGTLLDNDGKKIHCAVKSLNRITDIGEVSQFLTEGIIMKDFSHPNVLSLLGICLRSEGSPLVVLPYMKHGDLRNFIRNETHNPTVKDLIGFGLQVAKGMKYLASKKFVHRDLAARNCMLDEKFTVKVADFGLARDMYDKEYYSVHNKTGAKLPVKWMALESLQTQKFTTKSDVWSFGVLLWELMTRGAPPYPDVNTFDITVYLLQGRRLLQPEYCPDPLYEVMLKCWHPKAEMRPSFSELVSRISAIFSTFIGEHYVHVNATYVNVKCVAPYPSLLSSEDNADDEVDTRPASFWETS
T2 sequence (P08581 25-1390): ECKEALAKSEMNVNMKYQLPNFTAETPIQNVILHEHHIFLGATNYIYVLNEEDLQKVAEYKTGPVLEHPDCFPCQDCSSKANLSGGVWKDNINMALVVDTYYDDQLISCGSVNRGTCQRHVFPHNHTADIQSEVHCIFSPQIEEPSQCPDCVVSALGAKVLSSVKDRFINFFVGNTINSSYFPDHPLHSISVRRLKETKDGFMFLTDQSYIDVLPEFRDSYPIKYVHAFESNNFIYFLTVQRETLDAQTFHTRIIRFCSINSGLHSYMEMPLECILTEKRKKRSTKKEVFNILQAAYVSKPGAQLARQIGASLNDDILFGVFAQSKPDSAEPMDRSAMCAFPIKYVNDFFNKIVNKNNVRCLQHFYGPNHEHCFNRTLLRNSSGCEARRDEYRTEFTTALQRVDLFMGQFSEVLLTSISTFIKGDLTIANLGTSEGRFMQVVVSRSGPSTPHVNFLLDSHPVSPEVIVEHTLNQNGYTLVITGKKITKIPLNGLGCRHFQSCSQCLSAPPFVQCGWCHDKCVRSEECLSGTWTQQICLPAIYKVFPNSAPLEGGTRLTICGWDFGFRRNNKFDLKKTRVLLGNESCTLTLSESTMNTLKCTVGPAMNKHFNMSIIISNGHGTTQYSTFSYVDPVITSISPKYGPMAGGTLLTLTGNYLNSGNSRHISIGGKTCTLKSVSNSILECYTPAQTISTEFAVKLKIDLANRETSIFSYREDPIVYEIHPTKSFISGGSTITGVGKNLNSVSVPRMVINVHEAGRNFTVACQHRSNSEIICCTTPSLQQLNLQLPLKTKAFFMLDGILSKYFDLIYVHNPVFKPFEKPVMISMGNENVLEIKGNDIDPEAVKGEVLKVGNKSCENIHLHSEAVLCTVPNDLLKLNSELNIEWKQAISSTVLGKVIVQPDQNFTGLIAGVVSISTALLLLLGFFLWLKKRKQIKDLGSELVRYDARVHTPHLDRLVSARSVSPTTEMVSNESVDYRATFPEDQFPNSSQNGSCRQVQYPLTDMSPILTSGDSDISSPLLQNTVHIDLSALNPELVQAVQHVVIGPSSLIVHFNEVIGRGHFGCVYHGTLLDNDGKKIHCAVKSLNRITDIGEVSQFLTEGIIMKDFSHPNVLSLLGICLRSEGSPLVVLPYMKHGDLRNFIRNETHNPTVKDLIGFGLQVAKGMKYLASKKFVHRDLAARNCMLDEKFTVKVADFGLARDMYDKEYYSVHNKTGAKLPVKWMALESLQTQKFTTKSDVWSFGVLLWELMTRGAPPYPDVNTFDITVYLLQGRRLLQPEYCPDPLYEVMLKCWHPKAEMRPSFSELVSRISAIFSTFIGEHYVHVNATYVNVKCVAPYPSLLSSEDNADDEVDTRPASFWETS

Row | Structure (SMILES) | IC50 [1] [nM] | IC50 [2] [nM]
1 | CCc1n[nH]c2ccc(C3C(C#N)=C(C)N4CCOCC4=C3C#N)cc12 (racemic) [Example 4, 8-(3-Ethyl-1H-indazol-5-yl)-6-methyl-1,3,4,8-tetrahydropyrido[2,1-c][1,4]oxazine-7,9-dicarbonitrile] | 23 | 
2 | CCc1n[nH]c2ccc(C3C(C#N)=C(C)N4CCOCC4=C3C#N)cc12 (single isomer, unassigned) [Example 5, 8-(3-Ethyl-1H-indazol-5-yl)-6-methyl-1,3,4,8-tetrahydropyrido[2,1-c][1,4]oxazine-7,9-dicarbonitrile] |  | 12
3 | CCc1n[nH]c2ccc(C3C(C#N)=C(C)N4CCOCC4=C3C#N)cc12 (single isomer, unassigned) [Example 6, 8-(3-Ethyl-1H-indazol-5-yl)-6-methyl-1,3,4,8-tetrahydropyrido[2,1-c][1,4]oxazine-7,9-dicarbonitrile] |  | 88

Second part, the compound after the results:

Row | IC50 [1] [nM] | IC50 [2] [nM] | Structure (SMILES)
4 | 1 | 8 | CC1=C(C#N)C(c2ccc3[nH]nc(C)c3c2)C(C#N)=C2COCCN12 (single isomer, unassigned) [Example 2, 6-Methyl-8-(3-methyl-1H-indazol-5-yl)-1,3,4,8-tetrahydropyrido[2,1-c][1,4]oxazine-7,9-dicarbonitrile]
5 | 2 | 23 | CC1=C(C#N)C(c2ccc3[nH]nc(-c4ccc(F)nc4)c3c2)C(C#N)=C2COCCN12 (stereo not shown) [Example 7, 8-[3-(6-Fluoropyridin-3-yl)-1H-indazol-5-yl]-6-methyl-1,3,4,8-tetrahydropyrido[2,1-c][1,4]-oxazine-7,9-dicarbonitrile]
